The record followed here is patent publication US11597724B2, “Herbicidally active 3-phenylisoxazoline-5-carboxamides of tetrahydro and dihydrofuran carboxylic acids and esters” (Bayer Aktiengesellschaft, priority 2017, dated 2023).

What all share (assay type): in vivo
The subject of one assay is Echinochloa crus-galli. Briefly: Pre-emergence herbicidal activity against ECHCG. The following applies: dosage 80 g/ha, scored visually after about 3 weeks vs untreated controls (100% = plants have died, 0% = like control plants); for pest or weed control at 80 g/ha: Echinochloa crus-galli, 504 h. The source says: (§1) 1. Pre-Emergence Herbicidal Action and Crop Plant Compatibility Seeds of monocotyledonous and dicotyledonous weed plants and crop plants are placed in plastic or wood fiber pots and covered with soil. The compounds of the invention, formulated in the form of wettable powders (WP) or as emulsion concentrates (EC), are then applied onto the surface of the covering soil as aqueous suspension or emulsion with addition of 0.5% additive at a water application rate of 600 l/ha (converted). After the treatment, the pots are placed in a greenhouse and kept under good growth conditions for the trial plants. After about 3 weeks, the effect of the preparations is scored visually in comparison with untreated controls as percentages. For example, 100% activity=the plants have died, 0% activity=like control plants. ECHCG: Echinochloa crus-galli HORMU: Hordeum murinum

A further assay relates to Polygonum convolvulus. Briefly: Pre-emergence herbicidal activity against POLCO. Particulars: dosage 80 g/ha; for pest or weed control at 80 g/ha: Fallopia convolvulus, 504 h. In outline: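 Seeds sown in pots, soil surface sprayed pre-emergence with WP or EC formulations in water (600 l/ha) plus 0.5% additive. Greenhouse growth for about 3 weeks. Damage scored visually as % versus untreated controls (100% = plants dead).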

Assay [1] relates to Veronica persica. The assay can be described thus: Pre-emergence herbicidal activity against VERPE. Particulars: dosage 80 g/ha; for pest or weed control at 80 g/ha: Veronica persica, 504 h. In outline: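 Weed seeds sown in pots and covered with soil, then WP or EC formulations sprayed onto the soil surface as aqueous suspension/emulsion with 0.5% additive at 600 l/ha water. Kept in greenhouse; visual percent effect versus untreated controls scored after about 3 weeks (100% = plants dead).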

Assay [2] concerns Veronica persica. The assay can be described thus: Post-emergence herbicidal activity against VERPE. Particulars: dosage 320 g/ha; for pest or weed control at 320 g/ha: Veronica persica, 504 h. In outline:
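Greenhouse plants treated at one-leaf stage, 2–3 weeks after sowing, by spraying WP or EC formulations with 0.5% additive at 600 l/ha water. Visual rating about 3 weeks later versus untreated controls (100% = plants dead, 0% = like controls).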

The next assay deals with Alopecurus myosuroides. The assay can be described thus: Post-emergence herbicidal activity against ALOMY. The following applies: dosage 320 g/ha, rated about 3 weeks after treatment; for pest or weed control at 320 g/ha: Alopecurus myosuroides, 504 h. The gist of the method: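 Greenhouse-grown plants treated at one-leaf stage, 2 to 3 weeks after sowing, with WP or EC formulations sprayed as aqueous suspension/emulsion plus 0.5% additive at 600 l/ha. Activity rated visually about 3 weeks later versus untreated controls (100% = plants dead, 0% = like control).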

For a further assay, the system named is Setaria viridis. The assay can be described thus: Pre-emergence herbicidal activity against SETVI. The following applies: dosage 80 g/ha; for pest or weed control at 80 g/ha: Setaria viridis, 504 h.
From the text: as §1, with “POLCO: Polygonum convolvulus SETVI: Setaria viridis” for “ECHCG: Echinochloa crus-galli HORMU: Hordeum murinum”

In another assay the test system is Lolium rigidum. The assay can be described thus: Post-emergence herbicidal activity against LOLRI. Particulars: dosage 320 g/ha, rated about 3 weeks after treatment; for pest or weed control at 320 g/ha: Lolium rigidum, 504 h. In outline:
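Greenhouse-grown plants sprayed post-emergence at the one-leaf stage, 2 to 3 weeks after sowing, with WP or EC formulations plus 0.5% additive at 600 l/ha water. Activity rated visually after about 3 weeks versus untreated controls (100% = plants dead, 0% = like control).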

SMILES strings stand for the structures.

Turning to `COC(=O)C1=C[C@@H](NC(=O)C2(C)CC(c3cccc(F)c3)=NO2)CO1` (stereo partly drawn) [I-46, methyl (3R)-3-[[3-(3-fluorophenyl)-5-methyl-4H-isoxazole-5-carbonyl]amino]-2,3-dihydrofuran-5-carboxylate], the pest or weed control at 80 g/ha in the assay with Echinochloa crus-galli is 90%; in the assay with Polygonum convolvulus, 90%; in the assay with Veronica persica [1], 80%; with Setaria viridis, 100%. In addition, the pest or weed control at 320 g/ha with Veronica persica [2] is 80%; in the assay on Alopecurus myosuroides, 100%; with Lolium rigidum, 100%.
Turning to `CC1(C(=O)NC2COC(C(=O)OCc3ccccc3)C2)CC(c2cc(F)cc(F)c2)=NO1` (mixture of isomers) [I-45], the “Pre-emergence herbicidal activity against ECHCG in %” value with Echinochloa crus-galli was 100%. For the same molecule, in the assay with Polygonum convolvulus, the “Pre-emergence herbicidal activity against POLCO in %” value is given as 100%. Further, the “Pre-emergence herbicidal activity against VERPE in %” value with Veronica persica [1] turned out to be 80%. Further, the “Post-emergence herbicidal activity against VERPE in %” value in the assay on Veronica persica [2] stood at 80%. The “Post-emergence herbicidal activity against ALOMY in %” value in the assay on Alopecurus myosuroides is recorded as 100%. The “Pre-emergence herbicidal activity against SETVI in %” value in the assay with Setaria viridis is on record as 100%. In the assay with Lolium rigidum, the “Post-emergence herbicidal activity against LOLRI in %” value is 100%.
As to `C=C[C@]1(C(=O)N[C@H]2CO[C@@H](C(=O)OCC)C2)CC(c2cc(F)cc(F)c2)=NO1` (mixture of isomers) [I-35, ethyl cis-4-[[(5S)-3-(3,5-difluorophenyl)-5-vinyl-4H-isoxazole-5-carbonyl]amino]tetrahydrofuran-2-carboxylate], the pest or weed control at 80 g/ha in the assay on Echinochloa crus-galli, in the assay on Polygonum convolvulus, in the assay with Veronica persica [1] and in the assay with Setaria viridis was 100% each time. Moreover, the pest or weed control at 320 g/ha in the assay with Veronica persica [2] was found to be 80%; in the assay with Alopecurus myosuroides it was 100%; in the assay with Lolium rigidum it was 100%.
`COC(=O)C1CC(NC(=O)C2(C)CC(c3cc(F)cc(F)c3)=NO2)CO1` (mixture of isomers) [I-48]: the “Pre-emergence herbicidal activity against ECHCG in %” value in the assay on Echinochloa crus-galli stood at 90%. Besides, the “Pre-emergence herbicidal activity against POLCO in %” value with Polygonum convolvulus is given as 100%. Further, the “Pre-emergence herbicidal activity against VERPE in %” value in the assay on Veronica persica [1] stood at 100%. Also, the “Post-emergence herbicidal activity against VERPE in %” value with Veronica persica [2] is 80%. Moreover, the “Post-emergence herbicidal activity against ALOMY in %” value in the assay with Alopecurus myosuroides was found to be 90%. Further, in the assay with Setaria viridis, the “Pre-emergence herbicidal activity against SETVI in %” value came to 100%. The “Post-emergence herbicidal activity against LOLRI in %” value with Lolium rigidum came out at 90%.
For the molecule `CC(C)(C)OC(=O)C1CC(NC(=O)C2(C)CC(c3cc(F)cc(F)c3)=NO2)CO1` (mixture of isomers) [I-42], the “Pre-emergence herbicidal activity against ECHCG in %” value in the assay with Echinochloa crus-galli was 100%. In the assay with Polygonum convolvulus, the “Pre-emergence herbicidal activity against POLCO in %” value is listed as 100%. The “Pre-emergence herbicidal activity against VERPE in %” value with Veronica persica [1] was 90%. Moreover, the “Post-emergence herbicidal activity against VERPE in %” value with Veronica persica [2] is listed as 80%. Also, the “Post-emergence herbicidal activity against ALOMY in %” value in the assay on Alopecurus myosuroides turned out to be 100%. Also, the “Pre-emergence herbicidal activity against SETVI in %” value in the assay on Setaria viridis was determined as 100%. The “Post-emergence herbicidal activity against LOLRI in %” value in the assay with Lolium rigidum came to 100%.
As to `C=C[C@]1(C(=O)N[C@H]2CO[C@@H](C(=O)OC)C2)CC(c2cc(F)cc(F)c2)=NO1` (mixture of isomers) [I-10, methyl cis-4-[[(5S)-3-(3,5-difluorophenyl)-5-vinyl-4H-isoxazole-5-carbonyl]amino]tetrahydrofuran-2-carboxylate], the pest or weed control at 80 g/ha in the assay with Echinochloa crus-galli, in the assay on Polygonum convolvulus, in the assay on Veronica persica [1] and in the assay on Setaria viridis was 100% each time. Further, the pest or weed control at 320 g/ha in the assay with Veronica persica [2] was determined as 80%; in the assay on Alopecurus myosuroides it was 100%; with Lolium rigidum it was 100%.
For `CC(C)OC(=O)C1CC(NC(=O)C2(C)CC(c3cc(F)cc(F)c3)=NO2)CO1` (stereo not drawn) [I-44], the “Pre-emergence herbicidal activity against ECHCG in %” value in the assay with Echinochloa crus-galli is reported as 90%. The “Pre-emergence herbicidal activity against POLCO in %” value with Polygonum convolvulus is recorded as 100%. Besides, the “Pre-emergence herbicidal activity against VERPE in %” value with Veronica persica [1] turned out to be 80%. In addition, the “Post-emergence herbicidal activity against VERPE in %” value in the assay with Veronica persica [2] was determined as 80%. Moreover, the “Post-emergence herbicidal activity against ALOMY in %” value in the assay with Alopecurus myosuroides is 100%. Besides, in the assay on Setaria viridis, the “Pre-emergence herbicidal activity against SETVI in %” value is 100%. Also, the “Post-emergence herbicidal activity against LOLRI in %” value with Lolium rigidum was found to be 100%.
Consider `C=C[C@]1(C(=O)N[C@H]2CO[C@@H](C(=O)OC(C)C)C2)CC(c2cc(F)cc(F)c2)=NO1` (mixture of isomers) [I-36, isopropyl cis-4-[[(5S)-3-(3,5-difluorophenyl)-5-vinyl-4H-isoxazole-5-carbonyl]amino]tetrahydrofuran-2-carboxylate], for which the pest or weed control at 80 g/ha with Echinochloa crus-galli, in the assay on Polygonum convolvulus, in the assay with Veronica persica [1] and in the assay with Setaria viridis was 100% in each case. Further, the pest or weed control at 320 g/ha in the assay on Veronica persica [2], in the assay on Alopecurus myosuroides and with Lolium rigidum was 90% in each case.
As to `COC(=O)C1CC(NC(=O)C2(C(C)(F)F)CC(c3cc(F)cc(F)c3)=NO2)CO1` (stereo not drawn) [I-49], the “Pre-emergence herbicidal activity against ECHCG in %” value with Echinochloa crus-galli was 100%. For the same molecule, in the assay with Polygonum convolvulus, the “Pre-emergence herbicidal activity against POLCO in %” value is listed as 100%. Moreover, the “Pre-emergence herbicidal activity against VERPE in %” value in the assay on Veronica persica [1] is 100%. Further, the “Post-emergence herbicidal activity against VERPE in %” value in the assay on Veronica persica [2] is recorded as 80%. For the same molecule, the “Post-emergence herbicidal activity against ALOMY in %” value in the assay on Alopecurus myosuroides worked out at 90%. In addition, the “Pre-emergence herbicidal activity against SETVI in %” value in the assay with Setaria viridis stood at 100%. In the assay on Lolium rigidum, the “Post-emergence herbicidal activity against LOLRI in %” value came out at 90%.

As usually defined, the pest or weed control is how far the test organism was held down.
